Measured values from PubChem BioAssay AID2060356 (Molecular Pharmacology Branch, DTP, NCI, 2025).

System: PDC tumor spheroids with HUVEC/MSC, viability
Assay: Anticancer human tumor 439559-082-T-J2-PDC patient-derived colon adenocarcinoma cell line growth inhibition [TAK]
Details: for IC50: curve of first compound; for viability, T/C: stronger effect = lower value
Procedure, shortened: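 Tumor cells were grown as spheroids with HUVEC and hMSC (60:25:15) and treated with targeted agents combined with TAK-243 or ipatasertib. Drugs were tested in half-log steps down from near the clinical Cmax, or from 10 microM where Cmax was unknown.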
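Also: spheroids exposed to drugs for seven days before readout.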

## CC(C)CC(NC(=O)C(Cc1ccccc1)NC(=O)c1cnccn1)B(O)O (stereo not given) + CC(C)NCC(C(=O)N1CCN(c2ncnc3c2C(C)CC3O)CC1)c1ccc(Cl)cc1
Second compound 0.3 µM
  IC50: > 10 nM
Second compound 0.949 µM
  IC50: > 10 nM
Second compound 3 µM
  IC50: > 10 nM
Second compound 9.49 µM
  IC50: > 10 nM
Second compound 30 µM
  IC50: > 10 nM
Second compound 0.3 µM, first compound 31.6 pM
  viability, T/C: 112%
Second compound 0.3 µM, first compound 0.0001 µM
  viability, T/C: 94.2%
Second compound 0.3 µM, first compound 0.000316 µM
  viability, T/C: 96.6%
Second compound 0.3 µM, first compound 0.001 µM
  viability, T/C: 97.7%
Second compound 0.3 µM, first compound 0.00316 µM
  viability, T/C: 97.7%
Second compound 0.3 µM, first compound 0.01 µM
  viability, T/C: 80.3%
Second compound 0.949 µM, first compound 31.6 pM
  viability, T/C: 105%
Second compound 0.949 µM, first compound 0.0001 µM
  viability, T/C: 107%
Second compound 0.949 µM, first compound 0.000316 µM
  viability, T/C: 92.5%
Second compound 0.949 µM, first compound 0.001 µM
  viability, T/C: 105%
Second compound 0.949 µM, first compound 0.00316 µM
  viability, T/C: 93.2%
Second compound 0.949 µM, first compound 0.01 µM
  viability, T/C: 74%
Second compound 3 µM, first compound 31.6 pM
  viability, T/C: 102%
Second compound 3 µM, first compound 0.0001 µM
  viability, T/C: 98.2%
Second compound 3 µM, first compound 0.000316 µM
  viability, T/C: 93%
Second compound 3 µM, first compound 0.001 µM
  viability, T/C: 102%
Second compound 3 µM, first compound 0.00316 µM
  viability, T/C: 89.3%
Second compound 3 µM, first compound 0.01 µM
  viability, T/C: 70%
Second compound 9.49 µM, first compound 31.6 pM
  viability, T/C: 93.3%
Second compound 9.49 µM, first compound 0.0001 µM
  viability, T/C: 97.6%
Second compound 9.49 µM, first compound 0.000316 µM
  viability, T/C: 92.9%
Second compound 9.49 µM, first compound 0.001 µM
  viability, T/C: 84.4%
Second compound 9.49 µM, first compound 0.00316 µM
  viability, T/C: 85.5%
Second compound 9.49 µM, first compound 0.01 µM
  viability, T/C: 69.3%
Second compound 30 µM, first compound 31.6 pM
  viability, T/C: 85.8%
Second compound 30 µM, first compound 0.0001 µM
  viability, T/C: 98.5%
Second compound 30 µM, first compound 0.000316 µM
  viability, T/C: 87.3%
Second compound 30 µM, first compound 0.001 µM
  viability, T/C: 89.2%
Second compound 30 µM, first compound 0.00316 µM
  viability, T/C: 86%
Second compound 30 µM, first compound 0.01 µM
  viability, T/C: 69.1%
